Test results: DBAASP
≈ marks a conversion by molar mass, not a printed value. Values belong to the compound of their own block, whether it stands above or below them.

Tests used:
Assay in all cases: ≥ marks a high value that may be exact or a test limit, other limits are often not marked, values filed in µg/mL are converted to µM
[1] = tested on: Bacillus anthracis
[2] = tested on: Escherichia coli
[3] = tested on: Bacillus cereus
[4] = tested on: Staphylococcus aureus
[5] = tested on: Bacillus subtilis ATCC 6633
[6] = tested on: Bacillus megaterium Bm11
[7] = tested on: Staphylococcus aureus JC-1
[8] = tested on: Candida albicans ATCC 90028
[9] = tested on: Pseudomonas aeruginosa OT97
[10] = tested on: Shigella flexneri ATCC 203
[11] = tested on: Staphylococcus aureus Cowan 1
[12] = tested on: Trichosporon beigelii KCTC 7707
[13] = tested on: Micrococcus luteus Ml11
[14] = tested on: Proteus vulgaris OX19 ATCC 6380
[15] = tested on: Escherichia coli D21
[16] = tested on: Trichophyton rubrum KCTC 6345
[17] = tested on: Malassezia furfur KCTC 7744
[18] = tested on: Leuconostoc lactis
[19] = tested on: Listeria innocua
[20] = tested on: Enterococcus faecalis ATCC 29212
[21] = tested on: Staphylococcus aureus ATCC 29213
[22] = tested on: Streptococcus uberis
[23] = tested on: Micrococcus luteus ATCC 9341
[24] = tested on: Staphylococcus epidermidis ATCC 14990
[25] = tested on: Burkholderia thailandensis
[26] = tested on: Bacillus subtilis ATCC 9372
[27] = tested on: Bacillus anthracis Sterne 34F2
[28] = tested on: Staphylococcus aureus UL12
[29] = tested on: Escherichia coli W3110
[30] = tested on: Staphylococcus aureus P838
[31] = tested on: Staphylococcus aureus AB94004
[32] = tested on: Staphylococcus aureus P1374
[33] = tested on: Staphylococcus aureus P1369
[34] = tested on: Bacillus subtilis AB91021
[35] = tested on: Pseudomonas aeruginosa AB93066
[36] = tested on: Escherichia coli AB94012
[37] = tested on: Bacillus thuringiensis AB92037
[38] = tested on: Staphylococcus aureus P1386
[39] = tested on: Staphylococcus aureus P1381
[40] = tested on: Enterococcus faecalis P675
[41] = tested on: Micrococcus luteus AB93113

Structure (SMILES): CC[C@H](C)[C@H](NC(=O)[C@H](CC(C)C)NC(=O)[C@H](C)NC(=O)[C@@H]1CCCN1C(=O)[C@H](Cc1ccccc1)NC(=O)[C@@H](NC(=O)[C@H](CCCCN)NC(=O)[C@H](CO)NC(=O)[C@H](C)NC(=O)[C@@H](NC(=O)[C@H](CCCN=C(N)N)NC(=O)[C@H](Cc1ccccc1)NC(=O)[C@@H](NC(=O)[C@@H](NC(=O)[C@@H]1CCCN1C(=O)[C@@H](N)CC(C)C)C(C)C)C(C)C)C(C)C)C(C)C)C(=O)N[C@@H](CO)C(=O)N[C@@H](CCCCN)C(=O)N[C@@H](CC(C)C)C(=O)N[C@H](C(=O)O)[C@@H](C)O [LPVVFRVASKVFPALISKLT]
MIC [1]: ≥ 58.6 µM
MIC [2]: > 117 µM
MIC [3]: ≥ 117 µM
MIC [4]: 117 µM (≈ 256 µg/mL)

Structure (SMILES): CC[C@H](C)[C@H](NC(=O)[C@H](CCCCN)NC(=O)[C@@H](NC(=O)[C@@H](NC(=O)[C@H](CCC(N)=O)NC(=O)CNC(=O)[C@H](Cc1cnc[nH]1)NC(=O)[C@H](CCC(N)=O)NC(=O)[C@H](CC(N)=O)NC(=O)[C@H](CCC(N)=O)NC(=O)[C@@H](NC(=O)[C@H](CCCCN)NC(=O)[C@@H](N)Cc1ccccc1)C(C)C)C(C)C)C(C)C)C(=O)N[C@@H](Cc1ccccc1)C(=O)N[C@@H](Cc1cnc[nH]1)C(=O)N[C@@H](Cc1cnc[nH]1)C(=O)O [FKVQNQHGQVVKIFHH]
MIC [5]: 20 µM (≈ 38.9 µg/mL)
MIC [6]: 1.95 µM (≈ 3.8 µg/mL)
MIC [7]: ≥ 94 µM
MIC [8]: 6.3 µM (≈ 12.3 µg/mL)
MIC [9]: ≥ 617 µM
MIC [10]: ≥ 205 µM
MIC [11]: ≥ 1000 µM
MIC [12]: 6.3 µM (≈ 12.3 µg/mL)
MIC [13]: 23 µM (≈ 44.8 µg/mL)
MIC [14]: ≥ 1000 µM
MIC [15]: ≥ 410 µM
MIC [16]: 25 µM (≈ 48.7 µg/mL)
MIC [17]: 12.5 µM (≈ 24.3 µg/mL)

Structure (SMILES): CC[C@H](C)[C@H](N)C(=O)N[C@@H](CC(C)C)C(=O)NCC(=O)N1CCC[C@H]1C(=O)N[C@H](C(=O)N[C@@H](CC(C)C)C(=O)NCC(=O)N[C@@H](CC(C)C)C(=O)N[C@H](C(=O)N[C@@H](CO)C(=O)N[C@@H](CC(=O)O)C(=O)N[C@H](C(=O)N[C@@H](CC(C)C)C(=O)N[C@@H](CC(=O)O)C(=O)N[C@@H](CC(=O)O)C(=O)N[C@H](C(=O)N[C@@H](CC(C)C)C(=O)NCC(=O)N[C@H](C(=O)N[C@@H](CC(C)C)C(=O)O)[C@@H](C)CC)C(C)C)[C@@H](C)O)C(C)C)C(C)C [ILGPVLGLVSDTLDDVLGIL]
MIC [25]: ≥ 50 µM
MIC [26]: ≥ 50 µM
MIC [27]: ≥ 100 µM
MIC [28]: ≥ 180 µM
MIC [29]: ≥ 180 µM

More lines, now with the values ahead:

MIC [18]: 12 µM (≈ 18.6 µg/mL)
MIC [19]: ≥ 50 µM
MIC [20]: 100 µM (≈ 155 µg/mL)
MIC [3]: 25 µM (≈ 38.7 µg/mL)
MIC [21]: 12 µM (≈ 18.6 µg/mL)
MIC [22]: 25 µM (≈ 38.7 µg/mL)
MIC [23]: 25 µM (≈ 38.7 µg/mL)
MIC [24]: 25 µM (≈ 38.7 µg/mL)
Structure (SMILES): CC[C@H](C)[C@H](N)C(=O)N[C@H](C(=O)NCC(=O)N[C@@H](Cc1cnc[nH]1)C(=O)N[C@@H](CC(C)C)C(=O)N[C@H](C(=O)N[C@@H](CCCCN)C(=O)N[C@H](C(=O)N[C@@H](C)C(=O)N[C@@H](CC(C)C)C(=O)NCC(=O)N[C@@H](CCSC)C(=O)N[C@@H](CC(C)C)C(=O)NCC(=O)N[C@@H](CC(C)C)C(N)=O)[C@@H](C)O)[C@@H](C)CC)[C@@H](C)CC [IIGHLIKTALGMLGL]

MIC [30]: ≥ 32.2 µM
MIC [31]: 8.06 µM (≈ 12.5 µg/mL)
MIC [32]: ≥ 129 µM
MIC [33]: ≥ 80.6 µM
MIC [34]: ≥ 64.5 µM
MIC [35]: ≥ 64.5 µM
MIC [36]: ≥ 64.5 µM
MIC [37]: ≥ 64.5 µM
MIC [38]: ≥ 161 µM
MIC [39]: ≥ 322 µM
MIC [40]: ≥ 32.2 µM
MIC [41]: ≥ 64.5 µM
Structure (SMILES): CC(C)C[C@H](NC(=O)[C@H](CO)NC(=O)CNC(=O)[C@H](Cc1c[nH]c2ccccc12)NC(=O)[C@H](Cc1ccccc1)NC(=O)CN)C(=O)N[C@@H](Cc1c[nH]c2ccccc12)C(=O)N[C@@H](CCC(=O)O)C(=O)NCC(=O)N[C@H](C(=O)N[C@@H](CCCCN)C(=O)N[C@@H](CO)C(=O)N[C@H](C(=O)N[C@H](C(N)=O)C(C)C)C(C)C)C(C)C [GFWGSLWEGVKSVV]
